Data on 28 compounds can be found in PubChem BioAssay (NCI).

What all share (experiment): growth of human tumour cells (NCI), 48 h
The subject of experiment [1] is SK-MEL-5 melanoma.
In experiment [2] the test system is NCI/ADR-RES ovarian.
Experiment [3] concerns OVCAR-5 ovarian.
For experiment [4], the system named is SNB-75 CNS.
For experiment [5], the system named is SN12C renal.
Experiment [6] has as its system NCI-H460 lung.
Experiment [7] concerns SF-295 CNS.
Experiment [8] relates to BT-549 breast.
The test system of experiment [9] is A498 renal.
Experiment [10] deals with SF-268 CNS.

Molecules are shown by their SMILES.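 Values below derive from 48-hour exposures of cells grown in 96-well plates, with endpoints linearly interpolated between the two concentrations bracketing the appropriate inhibition level. At the GI50, growth is halved. The concentration for full growth arrest is given as TGI.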

Take `COc1cc2c(cc1OC)-c1[nH]c3ccc([N+](=O)[O-])cc3c1CC(=O)N2`: the TGI in [1] was 5.87 µM; in experiment [2], greater than 100 µM; in experiment [3], greater than 83.2 µM; in experiment [4], 8.93 µM; in experiment [5], greater than 55.1 µM; in experiment [6] it was 6.4 µM. Also, the values for the TGI in experiment [7], in [8] and in experiment [9] were greater than 87.8 µM, greater than 100 µM and 8.31 µM, respectively.
Regarding `CCOC(=O)[C@@]12NN=N[C@@H]1[C@H]1CO[C@H](c3ccccc3)N1C2=O`, the TGI in experiment [1] stood at 24.5 µM; in experiment [2], 75.9 µM; in experiment [3], 31.8 µM; in experiment [5] it was 26.8 µM; in experiment [6] it was 20.5 µM; in [7], 27.5 µM. Also, the TGI in experiment [8] stood at 25.9 µM; in [10], 30.8 µM; in [9] it was 24.1 µM.
For the compound `COc1cc2nc3n(c(=O)c2cc1OC)CCCCC3`, the TGI in experiment [1], in [2], in experiment [3], in [4], in [5] and in experiment [6] was greater than 100 µM in each case. The TGI in [7], in experiment [8], in [10] and in experiment [9] was greater than 100 µM throughout.
For the compound `O=C1c2c(F)c(F)c(F)c(F)c2SC2=Nc3cccc4cccc(c34)N12`, the TGI came to 28.4 µM in experiment [1]; 10.2 µM in experiment [2]; 30.9 µM in experiment [3]; 25.5 µM in [4]; 10.4 µM in [5]; 29.3 µM in experiment [6]. Also, the TGI is 30.9 µM in experiment [7], 23.9 µM in [8], 13.7 µM in experiment [10] and 35.2 µM in experiment [9].
For the compound `CN(C)C=Nc1c2c(nc3ccccc13)CCCC2`, the TGI in experiment [1], in [2], in experiment [3], in [4], in experiment [5] and in [7] was greater than 100 µM each time. In addition, the TGI in [8], in experiment [10] and in experiment [9] was greater than 100 µM in each case.
As to `Cc1csc2c(=O)n(COCc3ccccc3)c(=O)[nH]c12`, the TGI in [1], in [2], in experiment [3], in experiment [4], in experiment [5] and in experiment [6] was greater than 100 µM throughout. Besides, the TGI in experiment [7], in experiment [8], in experiment [10] and in [9] was greater than 100 µM each time.
As for `COC(=O)[C@@H](NC(=O)c1ccc(CNC(=O)/C(C)=C/c2ccccc2)cc1)C(C)C`, the TGI in [1], in experiment [2], in [3], in [4], in [5] and in experiment [6] was greater than 100 µM each time. Moreover, the TGI in [7], in experiment [8], in [10] and in experiment [9] was greater than 100 µM each time.
As to `O=C(NCCCc1cn[nH]c(=O)n1)c1cccc2nc3ccccc3nc12`, the TGI in experiment [1], in experiment [2], in experiment [3], in experiment [5], in [6] and in experiment [7] was greater than 100 µM in each case. Besides, the TGI in [8], in [10] and in [9] was greater than 100 µM throughout.
In the case of `Cc1cc2nc(CC(C(F)(F)F)C(F)(F)F)oc2cc1C`, the TGI in [1] was 12.2 µM; in experiment [2], greater than 43.3 µM; in experiment [3], 25.7 µM; in [4] it was 16.3 µM; in experiment [6] it was 15.3 µM; in experiment [7], 18.6 µM. Moreover, the TGI in [8] stood at 6.65 µM; in experiment [10] it was 8.2 µM; in [9] it was 26.3 µM.
On to `O=C(NCCC1CN(S(=O)(=O)C(F)(F)F)c2ccccc21)OCc1ccccc1` (stereo unspecified), for which the TGI in [1], in experiment [2], in experiment [3], in experiment [6], in experiment [7] and in experiment [8] was greater than 100 µM each time. For the same compound, the TGI in experiment [10] and in experiment [9] was greater than 100 µM each time.
For `CC(=O)CC12NC(=O)N(C)N=C1N(C)C(=O)N(C)C2=O` (stereo unspecified), the TGI in experiment [2], in [3], in experiment [4], in [5], in experiment [6] and in experiment [7] was greater than 100 µM in each case. The TGI in experiment [8], in experiment [10] and in [9] was greater than 100 µM in each case.
For the compound `Cc1ccc(Cc2n[nH]c(=O)n2N2C(=O)c3ccccc3C2=O)cc1`, the TGI in [1], in [2], in experiment [3], in experiment [4], in experiment [5] and in [6] was greater than 100 µM throughout. Further, the TGI in experiment [7], in experiment [8] and in [9] was greater than 100 µM throughout.
Regarding `CNC(=O)c1cc(Oc2cccc3nc(NC(=O)Nc4ccc(F)cc4F)ccc23)ccn1`, the GI50 was 1.02 µM in experiment [1]; 1.6 µM in [2]; greater than 50 µM in experiment [8]; 1.9 µM in experiment [10]; 0.418 µM in experiment [9]. In addition, the TGI in [1] is greater than 50 µM; in experiment [2] it was greater than 50 µM; in [8], greater than 50 µM; in [10], greater than 50 µM; in experiment [9], 23.3 µM.
Take `COc1cccc(/C=N/NC(=O)CN(C)C)c1O`: the TGI in experiment [1], in experiment [2], in experiment [3], in experiment [5], in experiment [6] and in [7] was greater than 100 µM each time. Besides, the TGI in [8], in experiment [10] and in experiment [9] was greater than 100 µM in each case.
Take `CCC1OC2C(CC=C(C)C)=C3OC(C)(O)C(C)(CC)C(=O)C3=C3OC(=O)C=C1C32` (stereo unspecified): the TGI in experiment [1] was 34.9 µM; in experiment [2], 95.8 µM; in [3], greater than 100 µM; in experiment [6], 92.5 µM; in experiment [7] it was greater than 100 µM; in [8], 49.5 µM. The TGI in experiment [10] and in experiment [9] was greater than 100 µM each time.
In the case of `CCOC(=O)C(NC(=O)c1ccccc1)(Nc1ccc(S(=O)(=O)Nc2ccc(OC)nn2)cc1)C(F)(F)F` (stereo unspecified), the TGI in [1], in experiment [2], in [3], in [4], in experiment [5] and in experiment [6] was greater than 100 µM each time. For the same compound, the TGI in experiment [7], in experiment [8] and in experiment [10] was greater than 100 µM in each case.
Consider `COC1=CC(c2ccc[nH]2)=N/C1=C\c1[nH]c(C)c(C)c1CCC(=O)OCc1ccccc1`, for which the GI50 in experiment [2] is 0.382 µM; in experiment [3], 0.709 µM; in [4], 0.226 µM; in [6], 0.623 µM; in [7], 0.224 µM; in experiment [8], 0.378 µM. The GI50 in experiment [10] is 0.369 µM; in experiment [9], 0.563 µM. Besides, the TGI came to 2.01 µM in [2]; 7.07 µM in experiment [3]; 0.728 µM in experiment [4]; 10.8 µM in experiment [6]; 0.894 µM in experiment [7]; 2.9 µM in [8]. Also, the TGI in experiment [10] worked out at 2.92 µM; in experiment [9], 1.99 µM.
On to `Cc1cc(N)c2cc(NC(=O)Nc3ccc4nc(C)cc(N)c4c3)ccc2n1`, for which the TGI in experiment [1], in experiment [2], in experiment [3], in experiment [5], in experiment [6] and in experiment [7] was greater than 100 µM each time. Moreover, the TGI in [8], in experiment [10] and in [9] was greater than 100 µM each time.
As for `CCOP(=O)(OCC)C(C)(CC)/N=C(\N)NC#N` (stereo unspecified), the TGI in [1], in [2], in [3], in experiment [4], in experiment [5] and in [6] was greater than 100 µM in each case. In addition, the TGI in [7], in experiment [8] and in experiment [10] was greater than 100 µM each time.
Turning to `COc1cc(C(=O)N(C(=O)N2CCCCC2)c2ccccc2)cc(OC)c1OC`, the TGI in [1], in [2], in [3], in experiment [4], in experiment [5] and in experiment [6] was greater than 100 µM in each case. In addition, the TGI in [7], in [8] and in experiment [9] was greater than 100 µM each time.
As to `COc1ccccc1[C@@H]1CCC2CC[C@@H](c3ccccc3OC)[N+]21Cc1ccccc1` (stereo partly specified), the TGI in experiment [1] is 1.64 µM; in [2], 32.3 µM; in experiment [3] it was 12.9 µM; in [4], 8.65 µM; in experiment [5], 10.4 µM; in [7], 8.57 µM. Further, the figures for the TGI in experiment [8], in [10] and in [9] were 7.63 µM, 17.4 µM and 7.66 µM, respectively.
In the case of `COc1ccc(Oc2nc3c(N)cc(C(F)(F)F)cc3nc2-c2ccccc2)cc1`, the TGI in experiment [1] is greater than 100 µM; in experiment [2] it was greater than 100 µM; in [4], 40.6 µM; in experiment [6], 57.8 µM; in experiment [7], 41.2 µM; in experiment [8], greater than 100 µM. Moreover, the TGI in experiment [10] was determined as 64.5 µM; in experiment [9] it was 55.6 µM.
As for `COC(=O)C1CCCN1C(=O)OC(C)(C)C` (stereo unspecified), the TGI in experiment [1], in experiment [2], in experiment [3], in [4], in experiment [5] and in experiment [6] was greater than 100 µM in each case. Moreover, the TGI in experiment [7], in [8] and in experiment [10] was greater than 100 µM each time.
On to `CCc1n[nH]c(=O)n1N=C(c1ccccc1)c1ccccc1`, for which the TGI in [1], in experiment [2], in experiment [3], in experiment [5], in experiment [6] and in experiment [7] was greater than 100 µM throughout. In addition, the TGI in experiment [8], in [10] and in experiment [9] was greater than 100 µM each time.
Turning to `CC(=O)OC12OC(C)(C3C(=O)N(c4ccccc4)C(=O)C31)N(c1ccccc1)C2=O` (stereo unspecified), the TGI in experiment [1], in experiment [2], in experiment [3], in [4], in [5] and in [6] was greater than 100 µM in each case. In addition, the TGI in experiment [7], in experiment [8] and in [10] was greater than 100 µM throughout.
On to `O=c1cc(NNc2cccc(F)c2)[nH]c(=S)[nH]1`, for which the TGI in [1], in experiment [2], in experiment [3], in experiment [5], in experiment [6] and in [7] was greater than 100 µM in each case. Further, the TGI in [8], in experiment [10] and in experiment [9] was greater than 100 µM each time.
Take `CCOC(=O)[C@H](CO)Nc1c(O)c2c(c(O)c1Cl)C(=O)C=CC2=O`: the TGI in experiment [1], in experiment [2], in [3], in [4], in experiment [5] and in [6] was greater than 10 µM each time. Further, the TGI in [7], in [8] and in experiment [10] was greater than 10 µM throughout.
For `COc1cc(/C=C/C2=NN(c3cccc(S(=O)(=O)O)c3)C3(C2)SCC(=O)N3c2nc3ccccc3s2)cc(OC)c1OC` (stereo unspecified), the TGI in [1], in [2], in experiment [3], in experiment [4], in experiment [5] and in [6] was greater than 100 µM each time. Further, the TGI in [8], in experiment [10] and in experiment [9] was greater than 100 µM throughout.
